Data reported in patent publication US9650407B2, “Reprogramming of cellular adhesion” (The Regents of the University of California, priority 2011, dated 2017).

How the values were obtained:
[1] = test system: heterogeneous MCF10ARas/MCF10AWT microtissues; assay: Emergent phenotypes in heterogeneous MCF10ARas/MCF10AWT microtissues in 3D lrECM culture; format: cell-based; conditions: over 24 hr in culture vs DMSO control; LY294002 20 μM, PD325901 200 nM, Sorafenib 10 μM, PIK-90 2 μM; DNase added immediately after sorting
Method: Sorafenib was a gift from Kevan Shokat (UCSF0 and used at 10 μM. PIK-90 was purchased from Calbiochem and used at 2 μM. High activity DNase was purchased from Ambion. Ethidium homodimer-1 was purchased from Invitrogen and used at 1 μM.
The following antibodies were used for western blot: E-cadherin (BD Biosciences), tubulin (Sigma-Aldrich), phospho-Erk and phospho-Akt (Cell Signaling Technology), pan-Ras (Calbiochem), goat anti-mouse-HRP, and goat anti-rabbit-HRP (Thermo Scientific). The following antibodies were used for immunofluorescent staining: GM130, β-catenin (BD Biosciences), α6-integrin, laminin-5 (Millipore), cleaved caspase-3 (Cell Signaling Technology), Ki-67 (Sigma-Aldrich), gp135 (a gift from Keith Mostov, UCSF), Alexa Fluor 488- and 568-conjugated goat anti-mouse, anti-rat, and anti-rabbit antibodies (Invitrogen). F-actin was stained with Alexa Fluor 488- or 568-conjugated phalloidin (Invitrogen). LY294002 and PD325901 (Calbiochem) were used at 20 μM and 200 nM, respectively. TURBO DNase (Invitrogen) was used at a concentration of 10 U/ml.
Time-lapse images of aggregates were acquired on a Zeiss 200M inverted fluorescence microscope equipped with an XCite […] light source and a Hamamatsu camera. Field positions were programmed into Slidebook 5.0 software, and images were acquired at 30 min intervals. Samples were maintained in a humidified chamber at 37° C. and 5% CO2. Phenotypes were scored in Slidebook 5.0 software after acquisition. Microtissues that merged with other microtissues or single cells were not scored due to confounding effects on cell motility.
Apoptotic cells were excluded from phenotype quantification, as judged by cell morphology (FIG. 27, Panels A-E) or uptake of ethidium homodimer-1 (FIG. 28, Panels C, G, and H). Extruding microtis sues contained a single H2B-GFP-expressing cell pushed beyond the phase-bright boundary formed by the surrounding cells. Multicellular protrusions began with a single H2B-GFP-expressing cell that led the translation of the surrounding cells without becoming disconnected from the microtissue. H2B-GFP-expressing cells that broke away from tissues and moved alone were scored as protruding cells due to their altered morphology and motility.

Jurkat cells = assay: Time-lapse imaging of membrane dynamics of DNA-immobilized cells; format: cell-based; conditions: 1 uM latrunculin A; for membrane tubules from the cell surface: subsequent 100 uM nocodazole; for membrane microspikes: 100 uM nocodazole, 10 ng/mL PMA and 1.3 uM ionomycin
Method: Cells incorporating lipid-DNA were allowed to settle onto patterned glass within a PDMS-based flow cell for 30 minutes. Only cells hybridized to the surface via DNA were retained when the surface was washed with PBS. Patterned cells were imaged at 37° C. on a Zeiss Axiovert 200M at 200× or 400× magnification using phase contrast settings.
Cells were incubated with 1 uM latrunculin A either 10 (after nocodazole treatment) or 40 minutes prior to timelapse imaging. Cells were incubated with 10 ng/mL phorbol 12-myristate 13-acetate (PMA) and 1.3 uM ionomycin 4 hours prior to lipid incorporation. Cells were incubated with 100 uM nocodazole, with or without addition of latrunculin, 10 minutes prior to imaging.
Using ImageJ, cells were picked automatically from 20× fields of view and subsequently binarized. For each time point, scanning down the y-axis, the horizontal slice with the greatest width was identified. For each cell, the coefficient of variation was calculated for this set of widths, and this statistic was used to characterize each cell's membrane motility for binning. Error bars signify standard error.

Row | SMILES | formation/frequency of motile multicellular protrusions [1] | frequency of basal extrusions [1] | membrane tubules from the cell surface (Jurkat cells) | membrane microspikes (Jurkat cells)
1 | O=C(NOC[C@H](O)CO)c1ccc(F)c(F)c1Nc1ccc(I)cc1F [PD325901] | blocked | blocked | – | –
2 | COc1ccc2c(c1OC)N=C(NC(=O)c1cccnc1)N1CCN=C21 [PIK-90] | reduced | slightly increasing | – | –
3 | CNC(=O)c1cc(Oc2ccc(NC(=O)Nc3ccc(Cl)c(C(F)(F)F)c3)cc2)ccn1 [Sorafenib] | blocked | blocked | – | –
4 | C/C1=C/C(=O)O[C@@H]2C[C@@H](CC[C@H](C)/C=C\C=C\CC1)O[C@@](O)([C@@H]1CSC(=O)N1)C2 [latruncluin A, latrunculin A] | – | – | rapid growth of long tubules | blocked the formation
5 | COC(=O)Nc1nc2ccc(C(=O)c3cccs3)cc2[nH]1 [nocodazole] | – | – | retraction of the membrane tubules | completely blocked
